US20230265116A1, “DEGRADATION OF (EGFR) BY CONJUGATION OF EGFR INHIBITORS WITH E3 LIGASE LIGAND AND METHODS OF USE” (BEIGENE, LTD., priority 2020, published 2023)

How the values were obtained:
Format in all cases: cell-based
[1] = biological target: T1, EGFR WT (BaF3 WT cells) (Homo sapiens, UniProt P00533); test: EGFR degradation HTRF assay, BaF3 WT cells; settings: BaF3 WT, 16h treatment
T1 construct: expressed in transfected cells; host or cells: BaF3
Description: BaF3 WT(wild type), BaF3-LTC(L858R/T790M/C797S) and BaF3-DTC(Del19/T790M/C797S) cells are treated with compounds diluted in 0.2% DMSO cell culture medium and incubate for 16h, 37° C., 5% CO2, H1975-#36, H1975-#28, H1975-#23 and HCC827 cells are treated with compounds diluted in 0.2% DMSO cell culture medium on day 2, incubate for 16h, 37° C., 5% CO2.the final concentriation of compounds in all assay is start with 10 uM, 5-fold dilution, total 8 doses were included.
After 16h treatment, add HTRF lysis buffer to each well; seal the plate and incubate 1 hour at room temperature on a plate shaker; Once the cells are lysed, 16 μL of cell lysate are transferred to a PE 384-well HTRF detection plate; 4 μL of pre-mixed HTRF antibodies are added to each well; Cover the plate with a plate sealer, spin 1000 rpm for 1 min, Incubate overnight at room temperature; Read on BMG PheraStar with HTRF protocol (337 nm-665 nm-620 nm).
The inhibition (degradation) percentage of the compound was calculated by the following equation: Inhibition percentage of Compound=100-100×(Signal-low control)/(High control-low control), wherein signal=each test compound group
High control=Cell group with added DMSO and without compound, indicating microplate readings without EGFR degradation;
Dmax is the maximum percentage of inhibition (degradation).
The IC50 (DC50) value of a compound can be obtained by fitting the following equation
Y=Bottom+(TOP−Bottom)/(1+((IC50/X)^hillslope))
Wherein, X and Y are known values, and IC50, Hillslope, Top and Bottom are the parameters obtained by fitting with software. Y is the inhibition percentage (calculated from the equation), X is the concentration of the compound; IC50 is the concentration of the compound when the 50% inhibition is reached. The smaller the IC50 value is, the stronger the inhibitory ability of the compound is. Vice versa, the higher the IC50 value is, the weaker the inhibitory ability of the compound is; Hillslope represents the slope of the fitted curve, generally around 1*; Bottom represents the minimum value of the curve obtained by data fitting, which is generally 0%±20%; Top represents the maximum value of the curve obtained by data fitting, which is generally 100%±20%. The experimental data were fitted by calculating and analyzing with Dotmatics data analysis software.

[2] = tested on: EGFR Del19/T790M/C797S (BaF3-DTC cells); test: EGFR degradation HTRF assay, BaF3-DTC cells; settings: 16h treatment
In short: (§1)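 BaF3 (WT, Del19/T790M/C797S) and HCC827 cells exposed 16 h at 37 °C, 5% CO2 to compounds in 0.2% DMSO medium, 8 doses from 10 uM top, 5-fold steps. Lysates read by HTRF (665/620 nm); degradation % vs DMSO control, DC50 from four-parameter fit, Dmax as maximal degradation.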

[3] = biological target: T2, EGFR L858R/T790M (H1975-clone #36, homozygous) (Homo sapiens, UniProt P00533, L858R/T790M); test: EGFR degradation HTRF assay, H1975-clone #36 cells; settings: H1975 #36, 16h treatment
T2 construct: designed to specifically target WT EGFR but preserve the L858R/T790M copy; host or cells: H1975-clone #36
T2 sequence (P00533 25-1210 T790M/L858R): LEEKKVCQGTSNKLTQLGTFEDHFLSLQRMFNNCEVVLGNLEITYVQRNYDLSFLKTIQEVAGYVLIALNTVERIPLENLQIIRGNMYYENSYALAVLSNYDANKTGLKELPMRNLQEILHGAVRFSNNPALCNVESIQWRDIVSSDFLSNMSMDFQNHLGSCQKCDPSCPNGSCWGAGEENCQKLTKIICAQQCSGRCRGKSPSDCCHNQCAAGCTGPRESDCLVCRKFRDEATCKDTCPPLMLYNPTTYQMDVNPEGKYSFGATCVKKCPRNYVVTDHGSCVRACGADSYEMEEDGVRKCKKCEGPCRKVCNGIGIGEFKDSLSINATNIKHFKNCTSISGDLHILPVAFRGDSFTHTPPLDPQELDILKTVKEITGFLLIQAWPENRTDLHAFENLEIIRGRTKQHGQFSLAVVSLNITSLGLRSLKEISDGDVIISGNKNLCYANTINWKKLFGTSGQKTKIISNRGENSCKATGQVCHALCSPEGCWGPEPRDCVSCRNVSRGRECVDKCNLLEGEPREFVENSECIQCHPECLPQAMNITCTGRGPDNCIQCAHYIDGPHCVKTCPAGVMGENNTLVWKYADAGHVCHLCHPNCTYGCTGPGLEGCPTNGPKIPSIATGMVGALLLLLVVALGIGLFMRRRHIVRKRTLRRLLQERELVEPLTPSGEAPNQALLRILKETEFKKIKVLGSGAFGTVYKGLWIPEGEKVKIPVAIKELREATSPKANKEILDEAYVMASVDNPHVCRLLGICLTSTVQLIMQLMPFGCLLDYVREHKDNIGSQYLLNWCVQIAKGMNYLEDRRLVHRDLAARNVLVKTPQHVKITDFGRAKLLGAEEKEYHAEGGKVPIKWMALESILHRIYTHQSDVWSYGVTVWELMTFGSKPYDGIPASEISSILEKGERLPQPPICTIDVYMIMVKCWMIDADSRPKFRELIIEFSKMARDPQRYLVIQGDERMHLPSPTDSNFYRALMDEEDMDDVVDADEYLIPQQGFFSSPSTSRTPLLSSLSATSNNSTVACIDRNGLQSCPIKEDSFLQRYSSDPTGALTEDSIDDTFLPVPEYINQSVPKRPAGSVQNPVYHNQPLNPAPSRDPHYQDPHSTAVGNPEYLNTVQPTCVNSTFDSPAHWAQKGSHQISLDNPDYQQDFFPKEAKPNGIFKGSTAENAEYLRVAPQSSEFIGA
In short: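 Eight-point, 5-fold series starting at 10 uM (0.2% DMSO) applied for 16 h, 37 °C, to a WT-EGFR-knockout H1975 clone carrying only L858R/T790M. Lysates read by HTRF overnight. Degradation percentage relative to DMSO control fitted for DC50, with Dmax as maximum degradation.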

[4] = biological target: T3, EGFR L858R/T790M/C797S (BaF3-LTC cells) (Homo sapiens, UniProt P00533, C797S/L858R/T790M); test: EGFR degradation HTRF assay, BaF3-LTC cells; settings: BaF3-LTC, 16h treatment
T3 construct: expressed in transfected cells; host or cells: BaF3
T3 sequence (P00533 25-1210 T790M/C797S/L858R): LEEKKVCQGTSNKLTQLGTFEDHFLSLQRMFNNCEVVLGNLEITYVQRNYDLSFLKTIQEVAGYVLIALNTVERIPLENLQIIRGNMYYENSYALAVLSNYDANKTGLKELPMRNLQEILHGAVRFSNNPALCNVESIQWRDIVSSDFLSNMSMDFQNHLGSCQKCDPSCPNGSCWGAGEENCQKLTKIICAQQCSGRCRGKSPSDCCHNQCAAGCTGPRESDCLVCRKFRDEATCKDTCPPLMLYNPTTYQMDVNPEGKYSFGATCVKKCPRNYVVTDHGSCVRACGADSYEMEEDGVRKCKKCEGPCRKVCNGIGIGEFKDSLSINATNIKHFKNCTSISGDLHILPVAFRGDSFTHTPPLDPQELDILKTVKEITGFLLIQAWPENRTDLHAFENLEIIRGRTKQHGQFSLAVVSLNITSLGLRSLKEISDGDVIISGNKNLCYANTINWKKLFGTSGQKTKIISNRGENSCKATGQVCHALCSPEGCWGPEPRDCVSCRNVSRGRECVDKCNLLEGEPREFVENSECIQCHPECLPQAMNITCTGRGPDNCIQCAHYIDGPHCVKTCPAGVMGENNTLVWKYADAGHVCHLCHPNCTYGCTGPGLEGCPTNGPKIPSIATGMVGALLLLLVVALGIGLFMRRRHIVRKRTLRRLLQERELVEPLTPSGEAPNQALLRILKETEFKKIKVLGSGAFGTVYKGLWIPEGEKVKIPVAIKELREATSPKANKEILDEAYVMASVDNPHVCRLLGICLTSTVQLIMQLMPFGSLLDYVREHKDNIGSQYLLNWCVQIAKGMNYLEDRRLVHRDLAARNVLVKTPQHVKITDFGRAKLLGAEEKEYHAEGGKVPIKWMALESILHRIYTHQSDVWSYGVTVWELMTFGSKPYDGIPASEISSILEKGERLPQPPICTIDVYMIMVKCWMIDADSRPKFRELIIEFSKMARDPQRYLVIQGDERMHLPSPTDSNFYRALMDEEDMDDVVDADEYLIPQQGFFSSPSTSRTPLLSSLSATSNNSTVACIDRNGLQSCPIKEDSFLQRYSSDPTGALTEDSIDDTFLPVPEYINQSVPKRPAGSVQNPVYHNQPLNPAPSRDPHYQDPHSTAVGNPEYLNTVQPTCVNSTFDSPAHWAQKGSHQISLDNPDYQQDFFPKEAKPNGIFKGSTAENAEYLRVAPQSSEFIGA
In short: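 EGFR remaining after a 16 h, 37 °C exposure (8 doses, 5-fold steps from 10 uM final, 0.2% DMSO) was quantified by HTRF antibodies in cell lysate. Percent inhibition relative to DMSO control was fitted by four-parameter logistic to give DC50; Dmax denotes maximal degradation.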

[5] = biological target: T4, EGFR (HCC827 cells) (Homo sapiens, UniProt P00533, DEL746-750); test: EGFR degradation HTRF assay, HCC827 cells; settings: HCC827, 16h treatment
T4 construct: endogenous in cells; host or cells: HCC827
T4 sequence (P00533 with tags, fused parts or gaps DEL746-750): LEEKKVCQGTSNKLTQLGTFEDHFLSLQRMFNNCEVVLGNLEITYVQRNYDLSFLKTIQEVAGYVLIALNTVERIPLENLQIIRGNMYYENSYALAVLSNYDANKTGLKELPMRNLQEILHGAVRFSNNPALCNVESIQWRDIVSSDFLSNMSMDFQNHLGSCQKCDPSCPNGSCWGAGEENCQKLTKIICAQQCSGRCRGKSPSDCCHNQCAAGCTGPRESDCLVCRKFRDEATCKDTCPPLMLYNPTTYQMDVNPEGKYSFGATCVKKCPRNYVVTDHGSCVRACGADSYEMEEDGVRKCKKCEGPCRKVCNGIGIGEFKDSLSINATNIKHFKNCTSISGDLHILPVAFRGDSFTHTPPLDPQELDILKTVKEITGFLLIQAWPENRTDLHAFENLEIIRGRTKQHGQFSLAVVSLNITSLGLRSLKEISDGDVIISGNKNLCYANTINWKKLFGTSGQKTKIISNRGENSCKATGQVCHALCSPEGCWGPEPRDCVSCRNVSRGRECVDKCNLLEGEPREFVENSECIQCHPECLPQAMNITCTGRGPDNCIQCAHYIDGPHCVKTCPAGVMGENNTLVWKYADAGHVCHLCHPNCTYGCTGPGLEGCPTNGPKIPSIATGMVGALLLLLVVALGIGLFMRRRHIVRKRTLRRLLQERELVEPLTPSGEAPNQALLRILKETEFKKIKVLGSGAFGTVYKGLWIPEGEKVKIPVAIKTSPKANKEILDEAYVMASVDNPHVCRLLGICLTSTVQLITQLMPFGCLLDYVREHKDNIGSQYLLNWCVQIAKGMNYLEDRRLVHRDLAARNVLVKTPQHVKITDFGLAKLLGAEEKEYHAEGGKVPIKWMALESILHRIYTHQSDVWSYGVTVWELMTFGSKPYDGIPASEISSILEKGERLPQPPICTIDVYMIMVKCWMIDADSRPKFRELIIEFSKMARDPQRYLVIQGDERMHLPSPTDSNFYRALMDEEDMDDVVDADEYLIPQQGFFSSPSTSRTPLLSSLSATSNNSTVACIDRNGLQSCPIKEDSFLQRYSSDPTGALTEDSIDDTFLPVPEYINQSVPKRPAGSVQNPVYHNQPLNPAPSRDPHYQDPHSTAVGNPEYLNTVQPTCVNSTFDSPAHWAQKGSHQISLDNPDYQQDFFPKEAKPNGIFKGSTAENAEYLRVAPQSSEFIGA
In short: as §1

[6] = maximum percentage of degradation

T1 sequence (P00533 25-1210): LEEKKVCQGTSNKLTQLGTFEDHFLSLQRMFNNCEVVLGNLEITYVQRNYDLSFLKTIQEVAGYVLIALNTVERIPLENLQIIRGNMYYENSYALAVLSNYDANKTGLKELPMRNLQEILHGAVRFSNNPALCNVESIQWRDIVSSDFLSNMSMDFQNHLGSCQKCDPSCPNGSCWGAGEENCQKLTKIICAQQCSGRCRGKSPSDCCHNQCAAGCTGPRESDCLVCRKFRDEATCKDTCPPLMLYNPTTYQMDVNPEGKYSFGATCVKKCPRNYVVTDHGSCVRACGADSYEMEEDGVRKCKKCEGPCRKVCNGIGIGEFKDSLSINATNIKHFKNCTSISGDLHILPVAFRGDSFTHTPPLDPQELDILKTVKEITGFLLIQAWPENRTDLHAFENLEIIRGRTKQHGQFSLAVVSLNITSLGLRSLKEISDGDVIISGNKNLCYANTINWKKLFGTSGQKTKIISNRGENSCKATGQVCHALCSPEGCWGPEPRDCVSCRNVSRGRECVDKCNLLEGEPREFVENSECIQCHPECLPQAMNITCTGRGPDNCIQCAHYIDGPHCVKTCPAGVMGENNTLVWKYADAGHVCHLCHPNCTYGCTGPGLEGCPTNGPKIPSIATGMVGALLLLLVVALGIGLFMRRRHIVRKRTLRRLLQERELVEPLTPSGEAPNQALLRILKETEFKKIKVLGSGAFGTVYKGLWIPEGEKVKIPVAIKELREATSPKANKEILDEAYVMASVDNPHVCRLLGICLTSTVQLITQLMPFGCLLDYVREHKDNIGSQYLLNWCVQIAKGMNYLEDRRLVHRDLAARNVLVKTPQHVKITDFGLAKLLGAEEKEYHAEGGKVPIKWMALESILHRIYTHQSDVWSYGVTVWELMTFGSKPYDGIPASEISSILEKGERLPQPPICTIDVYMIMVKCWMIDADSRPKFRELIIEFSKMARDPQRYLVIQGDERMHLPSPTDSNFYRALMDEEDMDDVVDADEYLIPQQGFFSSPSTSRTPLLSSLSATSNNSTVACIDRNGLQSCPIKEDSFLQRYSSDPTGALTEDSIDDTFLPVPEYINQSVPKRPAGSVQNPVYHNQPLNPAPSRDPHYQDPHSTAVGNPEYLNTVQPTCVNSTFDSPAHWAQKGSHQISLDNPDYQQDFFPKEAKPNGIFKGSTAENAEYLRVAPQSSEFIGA

Question: How did the DC50 [1] turn out when `CCc1cc(Nc2ncc(Br)c(Nc3ccc4nccnc4c3P(C)(C)=O)n2)c(OC)cc1N1CCC(N2CCN(CC3CCN(c4ccc5c(c4)C(=O)N(C4CCC(=O)NC4=O)C5=O)CC3)CC2)CC1` (stereo not shown) [Example 272, 5-(4-((4-(1-(4-((5-bromo-4-((5-(dimethylphosphoryl)quinoxalin-6-yl)amino)pyrimidin-2-yl)amino)-2-ethyl-5-methoxyphenyl)piperidin-4-yl)piperazin-1-yl)methyl)piperidin-1-yl)-2-(2,6-dioxopiperidin-3-yl)isoindoline-1,3-dione] was run?
Answer: Its DC50 is > 10000 nM.

Question: What about the Dmax ([1]; maximum percentage of degradation, read-out: WT Dmax (%)) of the same molecule?
Answer: The Dmax was 12.1%.

Question: What about the “DTC Dmax (%)” value [2, 6] of the same molecule?
Answer: The value was 91.58%.

Question: And the DC50 ([2]; read-out: DTC DC50)?
Answer: Its DC50 is 21.9 nM.

Question: What about the DC50 [3] of the same molecule?
Answer: Its DC50 is 10.5 nM.

Question: What about the Dmax ([3]; NCI-H1975, maximum percentage of degradation) of the same molecule?
Answer: Its Dmax is 75%.

Question: And the Dmax ([4]; maximum percentage of degradation, read-out: LTC Dmax (%))?
Answer: Its Dmax is 90.9%.

Question: What about the DC50 ([4]; read-out: LTC DC50) of the same molecule?
Answer: The DC50 was 35.6 nM.

Question: And the DC50 [5]?
Answer: Its DC50 is 5.35 nM.

Question: And the Dmax [5, 6]?
Answer: The Dmax was 86.2%.
